This is an account of results in patent US8450357B2, “Compositions comprising an aryl pyrazole and/or a formamidine, methods and uses thereof” (Merial Limited, priority 2008, dated 2013).

The nature of the data set: Crystal formation of amitraz formulations on storage or on the coat. It is filed as physicochemical. The method, then:
Solutions of amitraz in certain solvents at high concentration result in the appearance of crystals over time. […] The solubility of amitraz in butyl acetate is lower then in anisole, MIK and ethyl benzoate. […] Additionally, when amitraz (25%) in butyl acetate formulations were stored at 50° C. in a chamber, they evaporated slightly. […] Again, lowering concentration to 20% and addition of co-solvents with higher solubility of amitraz avoided crystallization of amitraz. Unexpectedly, this addition of co-solvents caused the effects described below in Example 9.

SMILES strings stand for the structures.

`Cc1ccc(/N=C/N(C)/C=N/c2ccc(C)cc2C)c(C)c1` [Amitraz, amitraz]: the “crystals upon cooling to room temperature” value (amitraz (25%) in butyl acetate stored at 50° C. in a chamber) was “precipitated crystals”. In addition, the “crystals on the coat of animals” value (amitraz (25%) in butyl acetate, clinical studies) is reported as “produced white crystals”.
